From patent US12673945B2, “3-((8-((1H-pyrazol-4-yl)amino)imidazo[1,2-a]pyridin-3-yl)ethinyl)-n-phenylbenzamide derivative, method for preparing same, and pharmaceutical composition containing same as active ingredient for prevention or treatment of cancer” (DAEGU-GYEONGBUK MEDICAL INNOVATION FOUNDATION, priority 2020, dated 2026)

Tests used:
[1] = oral pharmacokinetic test; format: in vivo, ICR mice; conditions: ICR, mouse, plasma, 10 mg/kg, 10 mg/Kg PO, vehicle A (NMP:PEG400=5:95)
Method: (§1) To evaluate the pharmacokinetic properties in vivo, oral pharmacokinetic test was performed with the compounds of Comparative Examples 1 and 4 and Examples 1 and 4 using mice and rats, and the PK parameters are shown in Table 10.
(§2) ICR mice (6-7 weeks old) and SD rats (6-7 weeks old) were used for the test. The fasted group was fasted about 16 hours before oral administration, and the fed group was fasted about 4 hours before oral administration. The test drug for oral administration was used by dissolving the drug in a vehicle at a concentration of 1 mg/mL for use, and blood samples were collected (time point: 0.25, 0.5, 1, 2, 4, 8, 12, 24, 32, n=3) from the heart (mouse, 500 μL/time point) or jugular vein (rat, 120 μL/time point). Blood was centrifuged at 12,000 G at 4° C. for 2 minutes to separate plasma, and stored at −80° C. until analysis. • Vehicle A (NMP:PEG400=5:95) • Vehicle B (0.5% methyl cellulose) 6-2. Sampling and Pretreatment
(§3) To 20 μl of plasma, 180 μl of acetonitrile (including internal standard) was added. The mixture was vortexed and centrifuged for 5 minutes at 15,000 rpm at 4° C. The supernatant obtained after centrifugation was analyzed by LC-MS/MS.
(§4) PK parameters were calculated with a non-compartmental analysis model using Phoenix WinNonlin 6.4 version (Pharsight, USA) program.

[2] = oral pharmacokinetic test; format: in vivo, SD rats; conditions: SD, plasma; rat, 10 mg/Kg PO, vehicle A (NMP:PEG400=5:95)
Method: as §1, §2, §3, §4

[3] = tested on: Parental (Ba/F3); test: Ba/F3 cell proliferation inhibition; format: cell-based; conditions: BaF3; 72 hours, Cell Counting Kit-8
Procedure, shortened: (§5)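 Parental and T315I-Bcr-Abl Ba/F3 cells, 1×10^4 per well, exposed 72 h at 37 °C to nine 3-fold dilutions, final 0 to 10 μM. Viability by CCK-8 after 2 h, absorbance 450 nm; GI50 fitted from percent of vehicle-treated cells.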

[4] = tested on: T315I-Bcr-Abl (Ba/F3); test: Ba/F3 cell proliferation inhibition; format: cell-based; conditions: BaF3; 72 hours, Cell Counting Kit-8
Procedure, shortened: as §5

[5] = tested on: KOPM28 cells; test: human CML cell proliferation inhibition; format: cell-based; conditions: 72 hours, Cell Counting Kit-8
Procedure, shortened: (§6)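 Here GI50 reflects CCK-8 absorbance (450 nm) after a 72 h compound exposure, calculated relative to vehicle wells. Compound was tested up to a final 10 μM. The parental lines carry Bcr-Abl, the T315I lines carry the T315I gatekeeper mutant.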

[6] = tested on: T315I-KOPM28 cells; test: human CML cell proliferation inhibition; format: cell-based; conditions: 72 hours, Cell Counting Kit-8
Procedure, shortened: as §6

[7] = tested on: T315I-TCCS cells; test: human CML cell proliferation inhibition; format: cell-based; conditions: 72 hours, Cell Counting Kit-8
Procedure, shortened: as §6

[8] = tested on: TCCS cells; test: human CML cell proliferation inhibition; format: cell-based; conditions: 72 hours, Cell Counting Kit-8
Procedure, shortened: as §6

[9] = tested on: Luc_Ba/F3 T315I-Bcr-Abl cell line; test: in vivo pharmacological activity, blood cancer mouse model; design: species or system nude mice; conditions: 25 mg/kg oral once a day for 10 days; vehicle group: day 21
Method: (§7) After the mice were adapted to an animal facility for 1 week, the Luc_Ba/F3 T315I-Bcr-Abl cell line emitting luciferase was transplanted into the caudal vein at the density of 5×10^6/animal. Group separation was performed 3 days after the cell line transplantation. On the day of the group separation, 10 mice were randomly assigned to each group of 5 groups so that the luminescence values were equal after luminescence measurement using IVIS spectrum-CT optical imaging equipment.
In addition, the body weight and survival rate of each experimental group were monitored.
Statistical analysis was performed using GraphPad Prism 8, and the statistical significance of the survival rate was confirmed using unpaired t test and log-rank (Mantel-Cox) test.

[10] = body weight in blood cancer mouse model; format: in vivo, nude mice; conditions: 25 mg/kg oral once a day for 10 days
Method: as §7, with “A total of 50 male 5-week-old nude mice (14-17 g) were obtained from Orient Bio Inc. (322, Galmachi-ro, Jungwon-gu, Seongnam-si, Gyeonggi-do, Korea). After” for “After”
5 groups: control (vehicle, 0.5% methylcellulose solution), ponatinib (25 mg/kg), Example 1 (25 mg/kg), Example 1 (50 mg/kg), Example 1 (100 mg/kg).
After the group separation, the compound of Example 1, ponatinib, and a vehicle were orally administered at intervals of once a day for 10 days in order to evaluate the therapeutic efficacy of the drug. The drug effect was confirmed through optical imaging, and the confirmation was carried out before the drug administration (day 0) and on days 4, 11, 18 and 21 after the administration. In addition, the body weight and survival rate of each experimental group were monitored.

Cc1cn(-c2cc(NC(=O)c3ccc(C)c(C#Cc4cnc5c(Nc6cnn(C)c6)cccn45)c3)cc(C(F)(F)F)c2)cn1 [Comparative Example 1, 4-methyl-N-(3-(4-methyl-1H-imidazol-1-yl)-5-(trifluoromethyl)phenyl)-3-((8-((1-methyl-1H-pyrazol-4-yl)amino)imidazo[1,2-a]pyridin-3-yl)ethynyl)benzamide, reference compound]
AUC(0-t) [1]: 7730 ng·h/mL
Cmax [1]: 810 ng/mL
half-life [1]: 3.5 h

Cc1cn(-c2cc(NC(=O)c3ccc(C)c(C#Cc4cnc5c(Nc6cnn(C)c6)cccn45)c3)cc(C(C)(C)C#N)c2)cn1 [Comparative Example 4, N-(3-(2-cyanopropan-2-yl)-5-(4-methyl-1H-imidazol-1-yl)phenyl)-4-methyl-3-((8-((1-methyl-1H-pyrazol-4-yl)amino)imidazo[1,2-a]pyridin-3-yl)ethynyl)benzamide, reference compound]
AUC(0-t) [1]: 12600 ng·h/mL
Cmax [1]: 3840 ng/mL
half-life [1]: 3.3 h
AUC(0-t) [2]: 2960 ng·h/mL
Cmax [2]: 169 ng/mL

Cc1cc(F)c(C(=O)Nc2ccc(CN3CCN(CCO)CC3)c(C(F)(F)F)c2)cc1C#Cc1cnc2c(Nc3cn[nH]c3)cccn12 [Example 111, 5-((8-((1H-pyrazol-4-yl)amino)imidazo[1,2-a]pyridin-3-yl)ethynyl)-2-fluoro-N-(4-((4-(2-hydroxyethyl)piperazin-1-yl)methyl)-3-(trifluoromethyl)phenyl)-4-methylbenzamide]
GI50 [3]: 500 to 5000 nM
GI50 [4]: 50 to 500 nM
GI50 [5]: < 10 nM
GI50 [6]: < 10 nM
GI50 [7]: < 10 nM
GI50 [8]: < 10 nM

Cc1cc(F)c(C(=O)Nc2ccc(CN3CCN(C)C(=O)C3)c(C(F)(F)F)c2)cc1C#Cc1cnc2c(Nc3cn[nH]c3)cccn12 [Example 112, 5-((8-((1H-pyrazol-4-yl)amino)imidazo[1,2-a]pyridin-3-yl)ethynyl)-2-fluoro-4-methyl-N-(4-((4-methyl-3-oxopiperazin-1-yl)methyl)-3-(trifluoromethyl)phenyl)benzamide]
GI50 [3]: 500 to 5000 nM
GI50 [4]: 50 to 500 nM
GI50 [5]: < 10 nM
GI50 [6]: 100 nM
GI50 [7]: 100 nM
GI50 [8]: < 10 nM

Cc1cc(F)c(C(=O)Nc2ccc(CN3CCN(S(C)(=O)=O)CC3)c(C(F)(F)F)c2)cc1C#Cc1cnc2c(Nc3cn[nH]c3)cccn12 [Example 113, 5-((8-((1H-pyrazol-4-yl)amino)imidazo[1,2-a]pyridin-3-yl)ethynyl)-2-fluoro-4-methyl-N-(4-((4-(methylsulfonyl)piperazin-1-yl)methyl)-3-(trifluoromethyl)phenyl)benzamide]
GI50 [3]: > 5000 nM
GI50 [4]: 500 to 5000 nM
GI50 [5]: < 10 nM
GI50 [6]: > 100 nM
GI50 [7]: > 100 nM
GI50 [8]: < 10 nM

Cc1cc(F)c(C(=O)Nc2ccc(Cn3cncn3)c(C(F)(F)F)c2)cc1C#Cc1cnc2c(Nc3cn[nH]c3)cccn12 [Example 114, N-(4-((1H-1,2,4-triazol-1-yl)methyl)-3-(trifluoromethyl)phenyl)-5-((8-((1H-pyrazol-4-yl)amino)imidazo[1,2-a]pyridin-3-yl)ethynyl)-2-fluoro-4-methylbenzamide]
GI50 [3]: > 5000 nM
GI50 [4]: 50 to 500 nM
GI50 [5]: < 10 nM
GI50 [6]: > 100 nM
GI50 [7]: > 100 nM
GI50 [8]: < 10 nM

Cc1ccc(C(=O)Nc2ccc(CN3CCN(C)CC3)c(C(F)(F)F)c2)cc1C#Cc1cnc2cccnn12 [ponatinib, reference compound]
day after the administration on which all subjects died (FIG. 3) [9]: 35 days
body weight change during the experimental period (FIG. 4) [10]: no significant body weight change
